Results on 20 molecules are retold here after PubChem BioAssay AID330 (DTP/NCI, 2004).

For this experiment, the system named is P388 leukemia ip, CD2F1 mice, survival T/C. The experiment in a line: NCI In Vivo Anticancer Drug Screen. Data for tumor model P388 Leukemia (intraperitoneal) in CD2F1 (CDF1) mice. The settings on record: endpoint: median survival time, higher = longer survival. The gist of the method:
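Mice carrying the transplanted tumor received test compound or vehicle. Survival was recorded in each group, and the value is the treated-group measurement divided by that of the vehicle-treated control group.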

The mark [1] stands for this setting: dose: 50.0 mg/kg/injection, schedule: Q04DX003 (ip), vehicle: saline with Tween-80.
[2] abbreviates: dose: 100.0 mg/kg/injection, schedule: Q04DX003 (ip), vehicle: saline with Tween-80.
Where [3] appears, read: dose: 12.5 mg/kg/injection, schedule: Q01DX005 (ip), vehicle: saline with Tween-80.
[4] abbreviates: dose: 50.0 mg/kg/injection, schedule: Q01DX009 (ip), vehicle: saline.
[5] abbreviates: dose: 60.0 mg/kg/injection, schedule: Q01DX005 (ip), vehicle: saline.
Setting [6] is: dose: 120.0 mg/kg/injection, schedule: Q01DX005 (ip), vehicle: saline.
[7] abbreviates: dose: 240.0 mg/kg/injection, schedule: Q01DX005 (ip), vehicle: saline.
Setting [8] is: dose: 60.0 mg/kg/injection, schedule: Q01DX005 (ip), vehicle: saline with Tween-80.
Where [9] appears, read: dose: 120.0 mg/kg/injection, schedule: Q01DX005 (ip), vehicle: saline with Tween-80.
Where [10] appears, read: dose: 200.0 mg/kg/injection, schedule: Q04DX003 (ip), vehicle: saline with Tween-80.

Each structure is given as a SMILES string. “And” between values parts separate entries of the source, which are not always exact repeats. Equal entries are not always repeated. Toxic doses and inconclusive results are not listed.

On to `Cc1cccc2c1C(=O)N(CC[P+](c1ccccc1)(c1ccccc1)c1ccccc1)C2=O`, for which the T/C was 111 % of control (dose: 0.78 mg/kg/injection, schedule: Q01DX009 (ip), vehicle: water); 115 % of control (dose: 1.33 mg/kg/injection, schedule: Q01DX009 (ip), vehicle: water); 119 % of control (dose: 2.0 mg/kg/injection, schedule: Q01DX009 (ip), vehicle: water); 121 % of control (dose: 3.0 mg/kg/injection, schedule: Q01DX009 (ip), vehicle: water).

In the case of `CC(C)(C)c1cc(/C2=c3\cc/c([n-]3)=C(\c3cc(C(C)(C)C)c(O)c(C(C)(C)C)c3)c3ccc([n-]3)/C(c3cc(C(C)(C)C)c(O)c(C(C)(C)C)c3)=c3/cc/c([n-]3)=C(\c3cc(C(C)(C)C)c(O)c(C(C)(C)C)c3)c3ccc2[n-]3)cc(C(C)(C)C)c1O.[Zn]`, the T/C by setting is: (dose: 100.0 mg/kg/injection, schedule: Q04DX002 (ip), vehicle: saline with Tween-80) 97 % of control; (dose: 200.0 mg/kg/injection, schedule: Q04DX002 (ip), vehicle: saline with Tween-80) 88 % of control; (dose: 400.0 mg/kg/injection, schedule: Q04DX002 (ip), vehicle: saline with Tween-80) 90 % of control.

Take `Nc1nc(N)c2nc(Sc3ccc(Cl)cc3)c(-c3ccccc3)nc2n1`: the T/C is 95 % of control (dose: 25.0 mg/kg/injection, schedule: Q04DX003 (ip), vehicle: saline with Tween-80); 91 % of control under setting [1]; 93 % of control under setting [2].

For the molecule `CC(=O)OC1(CSc2ccccc2)CCCCC1`, the T/C is 89 % of control (dose: 25.0 mg/kg/injection, schedule: Q01DX009 (ip), vehicle: saline with Tween-80); 101 % of control and 102 % of control (dose: 50.0 mg/kg/injection, schedule: Q01DX009 (ip), vehicle: saline with Tween-80); 104 % of control and 109 % of control (dose: 100.0 mg/kg/injection, schedule: Q01DX009 (ip), vehicle: saline with Tween-80); 108 % of control and 111 % of control (dose: 200.0 mg/kg/injection, schedule: Q01DX009 (ip), vehicle: saline with Tween-80); 111 % of control (dose: 400.0 mg/kg/injection, schedule: Q01DX009 (ip), vehicle: saline with Tween-80).

With `NC(=S)Nc1ccccc1`, the T/C was 100 % of control (dose: 2.5 mg/kg/injection, schedule: Q01DX009 (ip), vehicle: saline with Tween-80); 100 % of control (dose: 2.5 mg/kg/injection, schedule: Q04DX003 (ip), vehicle: saline sonified); 100 % of control (dose: 5.0 mg/kg/injection, schedule: Q01DX009 (ip), vehicle: saline with Tween-80); 104 % of control (dose: 5.0 mg/kg/injection, schedule: Q04DX003 (ip), vehicle: saline sonified); 100 % of control (dose: 10.0 mg/kg/injection, schedule: Q01DX009 (ip), vehicle: saline with Tween-80); 95 % of control (dose: 10.0 mg/kg/injection, schedule: Q04DX003 (ip), vehicle: saline sonified).

For the molecule `Cc1ccc(-n2c(=O)[nH]c3ccccc3c2=O)cc1[N+](=O)[O-]`, the T/C (dose: 6.25 mg/kg/injection, schedule: Q01DX005 (ip), vehicle: saline with Tween-80) is 101 % of control; the T/C under setting [3] was 97 % of control; the T/C (dose: 200.0 mg/kg/injection, schedule: Q01DX005 (ip), vehicle: saline with Tween-80) is 90 % of control.

On to `CC(C)(CO)C(O)C(=O)NCCCO` (configuration not stated), for which the T/C by setting is: under setting [4], 103 % of control; (dose: 100.0 mg/kg/injection, schedule: Q01DX009 (ip), vehicle: saline) 98 % of control; (dose: 200.0 mg/kg/injection, schedule: Q01DX009 (ip), vehicle: saline) 100 % of control.

Take `NC(CO)C(=O)NCCS(=O)(=O)O` (configuration not stated): the T/C runs as follows: under setting [5], 104 % of control; under setting [6], 99 % of control; under setting [7], 99 % of control.

For the molecule `CNC(=O)OCc1c(COC(=O)NC)c(-c2ccc(SC)cc2)n(C)c1C`, the T/C by setting is: (dose: 3.13 mg/kg/injection, schedule: Q01DX009 (ip), vehicle: distilled water + Tween-80) 187 % of control; (dose: 12.5 mg/kg/injection, schedule: Q01DX009 (ip), vehicle: distilled water + Tween-80) 152 % of control; (dose: 50.0 mg/kg/injection, schedule: Q01DX009 (ip), vehicle: distilled water + Tween-80) 150 % of control.

Take `OC[CH2][Hg][Br]`: the T/C is 101 % of control (dose: 0.37 mg/kg/injection, schedule: Q01DX009 (ip), vehicle: saline); 101 % of control (dose: 0.75 mg/kg/injection, schedule: Q01DX009 (ip), vehicle: saline); 101 % of control (dose: 1.5 mg/kg/injection, schedule: Q01DX009 (ip), vehicle: saline); 118 % of control (dose: 3.0 mg/kg/injection, schedule: Q01DX009 (ip), vehicle: saline); 104 % of control (dose: 6.0 mg/kg/injection, schedule: Q01DX009 (ip), vehicle: saline).

For the molecule `CCOC(=O)n1c(=O)oc2c(Br)cc(Br)cc21`, the T/C runs as follows: (dose: 50.0 mg/kg/injection, schedule: Q04DX002 (ip), vehicle: Klucel (hydroxypropylcellulose) (HPC)) 96 % of control; (dose: 100.0 mg/kg/injection, schedule: Q04DX002 (ip), vehicle: Klucel (hydroxypropylcellulose) (HPC)) 99 % of control; (dose: 200.0 mg/kg/injection, schedule: Q04DX002 (ip), vehicle: Klucel (hydroxypropylcellulose) (HPC)) 93 % of control.

In the case of `COc1ccc(C(=O)Nc2c(Cl)cccc2Cl)cc1OC`, the T/C was 94 % of control under setting [8] and 88 % of control under setting [9].

For `c1cc[n+](CC[n+]2ccccn2)nc1`, the T/C runs as follows: (dose: 12.5 mg/kg/injection, schedule: Q01DX001 (ip), vehicle: saline) 108 % of control and 111 % of control and 95 % of control; (dose: 25.0 mg/kg/injection, schedule: Q01DX001 (ip), vehicle: saline) 100 % of control (2×) and 122 % of control; (dose: 50.0 mg/kg/injection, schedule: Q01DX001 (ip), vehicle: saline) 100 % of control and 101 % of control and 92 % of control.

`c1ccc(CSC2=NCCN2)cc1`: the T/C is 93 % of control (dose: 12.5 mg/kg/injection, schedule: Q01DX009 (ip), vehicle: saline) and 91 % of control under setting [4].

Regarding `COC(=O)c1cc(C(=O)OC)c2c3[nH]cnc3ncn2c1=O`, the T/C is 98 % of control under setting [2]; 100 % of control under setting [10]; 97 % of control (dose: 400.0 mg/kg/injection, schedule: Q04DX003 (ip), vehicle: saline with Tween-80).

As for `S=C(NNc1nnc(-c2ccccc2)c(-c2ccccc2)n1)Nc1ccccc1`, the T/C was 106 % of control under setting [3]; 97 % of control (dose: 25.0 mg/kg/injection, schedule: Q01DX005 (ip), vehicle: saline with Tween-80); 90 % of control and 93 % of control (dose: 50.0 mg/kg/injection, schedule: Q01DX005 (ip), vehicle: saline with Tween-80).

In the case of `Cc1cc(C2(c3cc(C)c(O)c(C)c3)CC3CCC2C3)cc(C)c1O` (configuration not stated), the T/C by setting is: (dose: 50.0 mg/kg/injection, schedule: Q01DX009 (ip), vehicle: Klucel (hydroxypropylcellulose) (HPC)) 88 % of control; (dose: 100.0 mg/kg/injection, schedule: Q01DX009 (ip), vehicle: Klucel (hydroxypropylcellulose) (HPC)) 97 % of control; (dose: 200.0 mg/kg/injection, schedule: Q01DX009 (ip), vehicle: Klucel (hydroxypropylcellulose) (HPC)) 93 % of control.

Turning to `O=C1NC2(CCCCC2)C(=O)N1CCl`, the T/C runs as follows: (dose: 6.25 mg/kg/injection, schedule: Q01DX005 (ip), vehicle: saline) 100 % of control; (dose: 12.5 mg/kg/injection, schedule: Q01DX005 (ip), vehicle: saline) 101 % of control; (dose: 25.0 mg/kg/injection, schedule: Q01DX005 (ip), vehicle: saline) 108 % of control; (dose: 30.0 mg/kg/injection, schedule: Q01DX005 (ip), vehicle: saline) 104 % of control; (dose: 50.0 mg/kg/injection, schedule: Q01DX005 (ip), vehicle: saline) 103 % of control; under setting [5], 122 % of control. The T/C (dose: 100.0 mg/kg/injection, schedule: Q01DX005 (ip), vehicle: saline) was 112 % of control; the T/C under setting [6] was 118 % of control; the T/C under setting [7] is 114 % of control.

Regarding `CC(C)OC(=O)Nc1nc2ccc(C(=O)OC(C)C)cc2[nH]1`, the T/C is 102 % of control under setting [1]; 104 % of control and 116 % of control under setting [2]; 112 % of control and 113 % of control under setting [10].

For `COC(=O)C1CC2c3ccccc3C1c1ccccc12` (configuration not stated), the T/C is, setting by setting: under setting [8], 99 % of control; under setting [9], 99 % of control; (dose: 240.0 mg/kg/injection, schedule: Q01DX005 (ip), vehicle: saline with Tween-80) 101 % of control.
